Results on one molecule are retold here after patent US20250082614A1, “METHODS OF USING RAD51 INHIBITORS FOR TREATMENT OF PANCREATIC CANCER” (Cyteir Therapeutics, Inc., priority 2019, published 2025).

Data set [1] is described as follows: Pharmacokinetic (PK) study, plasma by LC-MS. Format: in vivo, rat. The settings on record: po @ 80 mg/kg. On the procedure: PK studies in mice were used to determine the fate of the compounds in a whole organism. Rats were treated with the compounds either orally of via IV at the indicated doses and followed for up to 24 hours. Plasma samples were taken at different time points and analyzed by LC-MS.

Data set [2] deals with ARPE19/HPV16 (HPV Immortalized RPE). Nature of the data set: Cell line screen, potency assay. The format is cell-based. The settings on record: ARPE-19, AICDA expression Negative. On the procedure: Percent cell death and EC50 values were calculated by comparing the cell viability of the compound treated wells to the non-treated wells. Normalized RLU values were obtained by subtracting the media well values from each of the wells in the same column, and then dividing that value by the DMSO treated cells values. The percent kill was then calculated by subtracting the normalized RLU value from 1 and multiplying by 100. The average normalized percent kill value and standard error of the mean was then calculated. The kill values were then inputted into Prism with the corresponding standard errors. In Prism a non-linear regression line was plotted with the data points using a semi-log scale, and the EC50 value was calculated.
The activity of the claimed compounds was measured in a variety of cell lines with different expression levels of activation induced cytidine deaminase (AICDA). The potency assay was repeated in all of the listed cell lines and the EC50 values recorded.

Data set [3] can be described thus: Human liver microsome stability. The format is in vitro ADME. The following applies: human liver microsomes. How it is done:
The stability of the claimed compounds was determined in the presences of human liver microsomes. The compounds were incubated with the microsomes at 37° C. for 45 minutes. Samples were analyzed using LC-MS/MS. Data analysis included half-life, clearance rate, and the percentage of hepatic blood flow […] for each of the compounds in the different species.

For `CC(C)OC(=O)Nc1ccc(-c2cnc([C@H]3CC[C@H](NC(=O)OC(C)C)CC3)s2)c(S(=O)(=O)NC(C)(C)C)c1` [Ex. 67A, trans-isopropyl N-[3-(tert-butylsulfamoyl)-4-[2-[4-(isopropoxycarbonylamino)cyclohexyl]thiazol-5-yl]phenyl]carbamate], the results for the “F (%) @ 5 mg/kg” value in data set [1] (Rat Female) and in data set [1] (Rat Male) were 86.5% and 46.9%, respectively. In data set [2], this molecule displayed an EC50 greater than 10 µM. For the same molecule, the “% QH (percentage of hepatic blood flow)” value in data set [3] is reported as less than 20.3%.
